Assay results published in PMC11790763, “A Peptide Motif Covering Splice Site B in Neuroligin-1 Binds to Aβ and Acts as a Neprilysin Inhibitor” (Molecular Neurobiology, 2024).
Bridges are numbered along the chain shown (N, C = ends). Roman numbers before positions name the chains, in order. Where no end group is shown, it is not given here.

T1: brain-derived NEP (Mus musculus, UniProt Q61391)
T1 construct: Clear supernatants were used as membrane-extracted fractions; from tissue; host or cells: adult mouse brain without cerebellum, Triton X-100-extracted membrane fraction
T1 sequence (Q61391 1-750): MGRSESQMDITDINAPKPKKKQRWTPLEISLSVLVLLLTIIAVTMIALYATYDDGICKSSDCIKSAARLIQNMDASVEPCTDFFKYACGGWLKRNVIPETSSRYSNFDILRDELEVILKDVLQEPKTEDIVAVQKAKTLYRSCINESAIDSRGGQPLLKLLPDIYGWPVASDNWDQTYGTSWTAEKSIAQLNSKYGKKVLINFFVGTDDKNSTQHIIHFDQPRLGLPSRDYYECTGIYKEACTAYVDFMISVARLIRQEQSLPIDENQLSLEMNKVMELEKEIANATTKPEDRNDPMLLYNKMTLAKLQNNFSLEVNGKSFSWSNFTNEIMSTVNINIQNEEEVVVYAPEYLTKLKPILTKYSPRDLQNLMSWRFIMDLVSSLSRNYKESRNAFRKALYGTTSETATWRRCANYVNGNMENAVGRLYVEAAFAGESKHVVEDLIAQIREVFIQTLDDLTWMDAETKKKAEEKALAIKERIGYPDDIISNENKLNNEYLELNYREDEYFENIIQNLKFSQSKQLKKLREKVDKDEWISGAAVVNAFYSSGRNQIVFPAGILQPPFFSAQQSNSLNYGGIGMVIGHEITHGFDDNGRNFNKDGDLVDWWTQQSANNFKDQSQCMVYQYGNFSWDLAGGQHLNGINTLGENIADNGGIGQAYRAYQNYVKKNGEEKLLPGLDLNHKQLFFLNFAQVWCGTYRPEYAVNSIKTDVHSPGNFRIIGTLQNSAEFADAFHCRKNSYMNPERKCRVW


Columns and labels:
[1] = target: T1, brain-derived NEP; assay: Neprilysin activity in NEP-enriched brain membrane fraction of 5XFAD mice; assay type: biochemical, mouse (5XFAD); conditions: 5XFAD mice membrane fraction; neurolide 10 μM; n = 6
Method: To measure NEP activity in brain tissue, whole brains without cerebellum were dissected from adult mice (C57Bl/6j or 5XFAD) and homogenized with a Teflon-glass homogenizer in five volumes (w/v) of ice-cold lysis buffer containing PBS (pH 7.4), 0.25 M sucrose and protease inhibitor cocktail (Complete™, EDTA-free, Roche Diagnostics, Indianapolis, IN). The homogenates were centrifuged at 9000 × g for 15 min at 4 °C. The supernatants were further centrifuged at 20,000 × g at 4 °C for 20 min. The resulting pellets were solubilized in resuspension buffer containing PBS (pH 7.4) and 1% Triton X-100 for 1 h on ice and again centrifuged at 20,000 × g at 4 °C for 20 min. Clear supernatants were used as membrane-extracted fractions. Protein concentrations of Triton-extracted membrane fractions were determined using the Pierce BCA Protein Assay kit (Thermo Fisher Scientific). The standard assay mixture consisted of membrane fraction containing 40 μg total protein diluted in 40 μl of dilution buffer, 10 μl of testing compound (NL1, neurolide or vehicle), and 50 μl of NEP substrate (5-FAM/QXL; Anaspec) in a total volume of 100 μl. The reaction was initiated by adding substrate to the assay mixture. […] Fluorescence was measured at Ex/Em = 485/535 nm every 20 min for 2 h. The data were expressed as percentage of relative activity of neprilysin.

[2] = target: T2, Aβ1-40 (Homo sapiens, UniProt P05067); assay: Competitive ELISA, binding to biotinylated Aβ1-40
T2 construct: biotinylated Aβ1-40, at final concentration 400 nM; purchased Bachem AG (Bubendorf, Switzerland) or Schafer-N; host or cells: synthetic peptide
T2 sequence (P05067 672-711): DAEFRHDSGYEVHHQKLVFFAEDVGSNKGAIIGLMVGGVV
Method: NL1 and NL1-derived peptide binding to Aβ was measured by competitive ELISA using the shorter Aβ1-40 peptide with a slower polymerization constant, optimized for this binding assay. Recombinant NL1 (3.125 nM) was immobilized on a poly-sorb 96-well plate (NUNC, Roskilde, Denmark) using sodium bicarbonate buffer (pH 9.6), and left overnight at 4 °C, followed by washing with PBST buffer (PBS supplemented with 0.1% [vol/vol] Tween-20, pH 7.4). In separate tubes, biotinylated Aβ1-40, at final concentration 400 nM, was premixed with serially diluted NL1 or NL1-derived peptides for 30 min. A reversed version of Aβ (Aβ40-1) was used as the respective negative control (Supplementary Fig. 1). After preincubation, the samples were centrifuged at 20,000 × g for 10 min at 4 °C and 100 μl of the mixtures were transferred in triplicates onto the precoated ELISA plate. Plates were incubated at room temperature for 4 h, followed by washing and incubation with streptavidin-HRP conjugate (1:1000, 1 h; Dako, Glostrup, Denmark). The signal was developed with TMB ONE (KEM-EN-TEC, Denmark), and the reaction was terminated with 0.2 M H2SO4. Absorbance was measured at 450 nm on a Wallac VICTOR2 1420 Multilabel Counter (PerkinElmer, Hvidovre, Denmark). KD values were derived by sigmoidal dose–response (variable slope) fit of NL1 and neurolide dose–response curves after log transformation according to GraphPad Prism (version 6, GraphPad, San Diego, CA, USA). Obtained inhibitory concentration IC50 value was interpreted as KD value.

[3] = target: T3, recombinant neprilysin (NEP) (Homo sapiens, UniProt P08473); assay: Neprilysin activity assay with recombinant enzyme (SensoLyte 520); assay type: biochemical; conditions: four to five independent experiments; for activity of recombinant NEP: dose-dependent, NL1 0.1, 0.3, 1, 3 μM, neurolide 1, 5, 10, 100 μM, 5-FAM/QXL substrate, Ex/Em 485/535 nm, 2 h
T3 construct: purchased Anaspec, Fremont, California, USA (SensoLyte 520 Neprilysin Activity Assay Kit)
T3 sequence (P08473 whole entry): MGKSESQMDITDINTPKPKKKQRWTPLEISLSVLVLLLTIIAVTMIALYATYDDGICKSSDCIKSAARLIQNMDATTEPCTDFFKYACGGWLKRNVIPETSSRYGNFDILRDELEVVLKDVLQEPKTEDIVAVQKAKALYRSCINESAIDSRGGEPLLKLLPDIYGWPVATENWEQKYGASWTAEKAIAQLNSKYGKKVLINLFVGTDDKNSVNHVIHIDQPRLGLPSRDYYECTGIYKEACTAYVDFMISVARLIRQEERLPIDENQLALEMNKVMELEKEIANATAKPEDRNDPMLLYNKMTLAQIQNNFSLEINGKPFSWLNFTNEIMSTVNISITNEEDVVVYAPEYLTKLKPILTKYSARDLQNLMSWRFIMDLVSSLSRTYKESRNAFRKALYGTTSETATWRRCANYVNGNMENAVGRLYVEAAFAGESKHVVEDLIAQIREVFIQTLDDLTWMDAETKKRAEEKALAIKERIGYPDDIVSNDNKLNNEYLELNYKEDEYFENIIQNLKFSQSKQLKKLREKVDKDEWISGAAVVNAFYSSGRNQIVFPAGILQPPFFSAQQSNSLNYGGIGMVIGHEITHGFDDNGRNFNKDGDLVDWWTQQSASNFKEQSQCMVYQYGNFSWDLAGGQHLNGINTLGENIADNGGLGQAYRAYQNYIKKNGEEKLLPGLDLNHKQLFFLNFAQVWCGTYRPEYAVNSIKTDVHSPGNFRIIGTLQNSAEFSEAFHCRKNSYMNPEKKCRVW
Method: NEP activity was measured using the SensoLyte 520 Neprilysin Activity Assay Kit *Fluorimetric* (Anaspec, Fremont, California, USA) following the protocol provided by the manufacturer. Briefly, Aβ1-42 was dissolved in anhydrous DMSO to a stock concentration of 5 mM, followed by dilutions in assay buffer (100 μM, 50 μM, and 5 μM). Both NL1 (3 μM, 1 μM, 0.3 μM, 0.1 μM) and neurolide (100, 10, 5, and 1 μM) were dissolved in assay buffer. Randomly selected two additional NL1-derived peptides, NLp4, and NLp7 (5 μM, Table 1), were included in the analysis. The NEP solution (40 μl) was mixed with 10 μl of either NL1 or peptides and supplemented with 50 μl of NEP substrate (5-FAM/QXL), and the final mixture was incubated in black optical-bottom 96-well plate (Nunc, Rochester, New York, USA). In co-stimulation experiments, Aβ1-42, prepared as described above, was added to the solution in final concentrations either 0.5 μM or 5 μM. The fluorescence signal was recorded at Ex/Em = 485/535 nm every 20 min for 2 h. The data are presented as the relative activity of NEP alone.

Molecule | NEP activity compared to untreated 5XFAD control [1] | binding affinity to Aβ, times lower than that of the parent sNL1 domain [2] | activity of recombinant NEP [3] | activity of recombinant NEP in the presence of Aβ1-42 ([3]; neurolide 10 μM with Aβ1-42 at 0.5 μM or 5 μM)
I: SEGNRWSNSTKGLFQRAKK-NH2 / II: SEGNRWSNSTKGLFQRAK / III: SEGNRWSNSTKGLFQRA / IV: SEGNRWSNSTKGLFQRA (amide I:18-IV:C, I:19-II:C, II:18-III:C; C-terminus assumed) [neurolide] | significant decrease | approximately 2 times | significantly inhibited | significantly inhibited
NL1: recombinant rat neuroligin-1, soluble ectodomain (R&D systems) (protein, UniProt Q62765 46-697, looked up, extracellular domain) extracellular domain: QKLDDVDPLVTTNFGKIRGIKKELNNEILGPVIQFLGVPYAAPPTGEHRFQPPEPPSPWSDIRNATQFAPVCPQNIIDGRLPEVMLPVWFTNNLDVVSSYVQDQSEDCLYLNIYVPTEDVKRISKECARKPGKKICRKGDIRDSGGPKPVMVYIHGGSYMEGTGNLYDGSVLASYGNVIVITVNYRLGVLGFLSTGDQAAKGNYGLLDLIQALRWTSENIGFFGGDPLRITVFGSGAGGSCVNLLTLSHYSEGNRWSNSTKGLFQRAIAQSGTALSSWAVSFQPAKYARILATKVGCNVSDTVELVECLQKKPYKELVDQDVQPARYHIAFGPVIDGDVIPDDPQILMEQGEFLNYDIMLGVNQGEGLKFVENIVDSDDGVSASDFDFAVSNFVDNLYGYPEGKDVLRETIKFMYTDWADRHNPETRRKTLLALFTDHQWVAPAVATADLHSNFGSPTYFYAFYHHCQTDQVPAWADAAHGDEVPYVLGIPMIGPTELFPCNFSKNDVMLSAVVMTYWTNFAKTGDPNQPVPQDTKFIHTKPNRFEEVAWTRYSQKDQLYLHIGLKPRVKEHYRANKVNLWLELVPHLHNLNDISQYTSTTTKVPSTDITLRPTRKNSTPVTSAFPTAKQDDPKQQPSPFSVDQRDYSTELS | – | – | significantly inhibited | –
